The results in this text go back to patent US6632822B1, “Compounds and therapeutic methods” (The Australian National University, priority 1999, dated 2003).

Like-named read-outs stand apart in the source and are kept apart here.

For assay [1], the system named is Plasmodium falciparum chloroquine-resistant strain (FAF6, derived from ITG2 strain). The assay can be described thus: Growth inhibition of chloroquine-resistant malaria parasite (parasite lactate dehydrogenase viability). Format: cell-based. The text has this:
Compounds IA and IB (also referred to herein as calothrixins A and B respectively) were isolated from Calothrix strains (Schlegel et al, J. Appl, Phycol. 10, 471-479 (1998)), extracts of which were screened for activity against HeLa cells and Plasmodium as described in the Examples.
A chloroquine-resistant strain (FAF6, derived from ITG2 strain (Biggs, B. A., Gooze, L., Wycherley, K., Wollish, W., Southwell, B., Leech, J. H., and Brown, G. V (1991). Proc. Natl. Acad. Sci. USA 88, 9171-9174, 1991) of the malaria parasite. Plasmodium falciparum was used. Parasites were cultured in standard media (Trager, W. and Jensen, J. B. (1976). Science 193 673-675) with modifications (Cranmer, S. L., Magowan, C., Lian, J., Coppel, R. L., and Cooke, B. M. (1997). Trans. Roy. Soc. Trop. Med. Hyg. 91, 363-365). At the start of the assay the parasitaemia was 2% and haematocrit was 2%. Parasites were incubated in the presence of inhibitors in 96-well plates for 48 h.
Parasite-derived lactate dehydrogenase activity at the end of the 48 h period was used as a measure of parasite viability in vitro (Makler, M. T., Ries, J. M., Williams, J. A., Bancroft, J. E., Piper, R. C., Gibbins, B. L., and Hinrichs, D. J. (1993). Am. J. Trop. Med. Hyg. 48, 739-741).
The results are illustrated in FIG. 1.

The next assay has as its system HeLa cells. The assay can be described thus: HeLa cell cytotoxicity, MTT assay. Format: cell-based. Conditions: cultured HeLa cells, 4 days continuous incubation, ± s.d., listed as IB (Calothrixin B). As to the method:
The compounds of Formula IA and IB were also examined for their efficacy in inhibiting the growth of cultured HeLa cells (FIG. 2). The IC50 values are depicted in Table 2.
Exponentially growing HeLa cells were trysinized, centrifuged and resuspended in fresh medium. (RPMI 1640, 20% FCS, 2 mM glutamine). […] Calothrix cell extracts or the purified active compound were prepared in dimethyl sulphoxide, serially diluted in complete medium, then added (100 μL) in quadruplicate to cell suspensions. Cells were incubated continuously with extracts at 37° C. for 4 days. Cytotoxicity was determined using the MTT [3-(4,5dimethylthiazol-2-yl)-2,5-diphenyl-tetrazolium bromide] assay. MTT (50 μL, 2 mg ML^−1) was aliquotted into all wells of the microtitre plate and incubated at 37° C. for 4 h. Plates were inverted to discard medium and formazan crystals were solubilized in 100 μL DMSO with 25 μL glycine buffer (0.1 M glycine in 0.1 M NaCl, pH 10.5). Plates were agitated for 30 s and absorbances determined immediately at […] using a Titertek Multiskan Plus MKII ELISA plate reader.
The results are illustrated in FIG. 2.

`CCN(CC)CCCC(C)Nc1ccnc2cc(Cl)ccc12` (stereo not drawn) [Chloroquine, reference compound]: the IC50 in assay [1] (Plasmodium falciparum, 48 h) is 180 ± 44 nM.

As for `O=C1c2[nH]c3ccccc3c2C(=O)c2cnc3ccccc3c21` [IB, Calothrixin B], the IC50 in assay [1] (chloroquine-resistant P. falciparum strain FAF6, 48 h incubation, parasite lactate dehydrogenase activity, ± s.d., listed as IB (Calothrixin B), read-out: IC50) is 83 ± 17 nM; with HeLa cells, 350 ± 82 nM.
